Measurements: publication PMC5266694, “Identification of Key Residues in the NisK Sensor Region for Nisin Biosynthesis Regulation” (Frontiers in Microbiology, 2017)
Each block holds one molecule with its values, some of them ahead of it. Where no end group is shown, it is not given here.

Key:
NisK = test: Far-Western blotting, b-nisin binding to NisK; design: species or system Lactococcus lactis; details: membrane proteins of L. lactis MG1363 RKNlacZ, SDS-PAGE, PVDF, denatured and renatured; biotin-labelled nisin, HRP-streptavidin detection
Procedure: (§1) Lactococcus lactis MG1363 RKNlacZ mutant cells were harvested from 500 ml broth when OD600 reached 0.6–0.7, washed with PBS buffer (pH 7.4) once and resuspended in 20 ml PBS buffer. After lysing by sonication, cells were centrifuged at 6,000 g for 1 h to remove intact cells. The supernatant was ultra-centrifuged at 120,000 g for 2 h to separate soluble (cytoplasmic fraction) and insoluble (cell membrane fraction) proteins.
Nisin was labeled by biotin according to the method shown by ([Koteva et al., 2010]) in Beijing Biosynthesis Biotechnology Co., Ltd.. Briefly, nisin peptide was resolved by NaHCO3 (0.1 M, pH = 9.0) and incubated with biotin. Nisin labeled with biotin was purified by High Performance Liquid Chromatography and was named as b-nisin. The insoluble (cell membrane fraction) proteins were separated from L. lactis MG1363 RKNlacZ mutant cells. Far-Western blotting assays were performed using a modified protocol as described by ([Wu Y. et al., 2007]). Briefly, the insoluble proteins were firstly separated by SDS-PAGE, and transferred to a PVDF membrane as in a standard Western blotting. The proteins in the membrane were then denatured and renatured. […] The horseradish peroxidase (HRP) conjugated streptavidin was used as the secondary antibody, and the lanes indicating b-nisin binding to NisK or NisK mutants were detected by photographic film. […]

NisK mutant 69–73A5 = test: Far-Western blotting, b-nisin binding to NisK mutant; design: species or system Lactococcus lactis; details: membrane protein of strain 69–73A5; biotin-labelled nisin, HRP-streptavidin
Procedure: as §1
(§2) Nisin was labeled by biotin according to the method shown by ([Koteva et al., 2010]) in Beijing Biosynthesis Biotechnology Co., Ltd.. Briefly, nisin peptide was resolved by NaHCO3 (0.1 M, pH = 9.0) and incubated with biotin. Nisin labeled with biotin was purified by High Performance Liquid Chromatography and was named as b-nisin. The insoluble (cell membrane fraction) proteins were separated from L. lactis MG1363 RKNlacZ mutant cells. Far-Western blotting assays were performed using a modified protocol as described by ([Wu Y. et al., 2007]). Briefly, the insoluble proteins were firstly separated by SDS-PAGE, and transferred to a PVDF membrane as in a standard Western blotting. The proteins in the membrane were then denatured and renatured. The membrane is then blocked and probed with b-nisin. The horseradish peroxidase (HRP) conjugated streptavidin was used as the secondary antibody, and the lanes indicating b-nisin binding to NisK or NisK mutants were detected by photographic film.
(§3) In order to clarify whether the important residues in NisK affected the interaction between nisin and NisK, the membrane proteins from L. lactis MG1363 RKNlacZ strain and the mutant strain M66A, D72A, Y113A, F133A, 69–73A5, and 74–76A3 were extracted. Nisin was labeled by biotin, and the modified product was named by b-nisin. The interaction between b-nisin and membrane proteins was studied by far-Western blotting assay.

NisK mutant 74–76A3 = test: as above; design: species or system Lactococcus lactis; details: membrane protein of strain 74–76A3; biotin-labelled nisin, HRP-streptavidin
Procedure: as §1, §2, §3

NisK mutant D72A = test: as above; design: species or system Lactococcus lactis; details: membrane protein of strain D72A; biotin-labelled nisin, HRP-streptavidin
Procedure: as §1, §2, §3

NisK mutant F133A = test: as above; design: species or system Lactococcus lactis; details: membrane protein of strain F133A; biotin-labelled nisin, HRP-streptavidin
Procedure: as §1, §2, §3

NisK mutant M66A = test: as above; design: species or system Lactococcus lactis; details: membrane protein of strain M66A; biotin-labelled nisin, HRP-streptavidin
Procedure: as §1, §2, §3

NisK mutant Y113A = test: as above; design: species or system Lactococcus lactis; details: membrane protein of strain Y113A; biotin-labelled nisin, HRP-streptavidin
Procedure: as §1, §2, §3

[1] = target: T1, His6-NisKex (NisK extracellular region) (Lactococcus lactis CV56, UniProt P42707 36-144); test: SPR; BIACORE3000; His6-NisKex immobilised on a CM5 chip by amide coupling to 1000 RU; nisin in HBS-T as analyte, 260 to 8.125 μM in twofold dilution, 30 μl/min, 25°C; 1:1 (Langmuir) model with local fitted Rmax; details: both partners purified
T1 construct: source: E. coli (pET28a), purified
T1 sequence (looked up): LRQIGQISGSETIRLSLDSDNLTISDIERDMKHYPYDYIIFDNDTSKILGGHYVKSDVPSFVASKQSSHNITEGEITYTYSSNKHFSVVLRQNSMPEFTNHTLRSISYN

Molecule: b-nisin: Nisin labeled with biotin, purified by High Performance Liquid Chromatography (ITSISLCTPGCKTGALMGCNMKTATCHCSIHVSK; ends and bridges not checked; also: labelled with biotin, site not given here)
binding to NisK on far-Western blot (NisK): labeled a membrane protein of about 51.5 kDa
binding to NisK mutant on far-Western blot (NisK mutant 69–73A5): did not show b-nisin binding bands
binding to NisK mutant on far-Western blot (NisK mutant 74–76A3): did not show b-nisin binding bands
binding to NisK mutant on far-Western blot (NisK mutant D72A): did not show b-nisin binding bands
binding to NisK mutant on far-Western blot (NisK mutant F133A): did not show b-nisin binding bands
binding to NisK mutant on far-Western blot (NisK mutant M66A): did not show b-nisin binding bands
binding to NisK mutant on far-Western blot (NisK mutant Y113A): did not show b-nisin binding bands

koff [1]: 1 s⁻¹
kon [1]: 65.2 M⁻¹ s⁻¹
B1: nisin (peptide, UniProt P13068 24-57, looked up)
peptide: ITSISLCTPGCKTGALMGCNMKTATCHCSIHVSK
notes: also called signal peptide nisin; nisin A; source: purified from commercial nisin product (Yinxiang, Zhejiang, China)
